Structures are written as SMILES. Values joined by “and” are separate entries in the source; they are usually repeats but may differ in a detail not shown here. Equal values may be shown once.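 Step 1: Grow cells in 96-well plates. Step 2: Expose to compound for 48 hours at 5 concentrations. Step 3: Interpolate endpoints linearly; if unreached, use highest concentration. The concentration for 50% growth inhibition is given as GI50. TGI marks complete inhibition of growth.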 Some results are limits rather than exact numbers.

For one assay, the system named is A498 renal. The assay is described as follows: NCI anticancer screen, dose series, 48 h.
Consider `COc1cc2c(cc1OC)C(c1ccccc1CCCCl)=NCC2`, for which the TGI is > 100 µM.
For the molecule `CC(C)c1ccc(/C=C2/C=C(c3ccc4ccccc4c3)OC2=O)cc1`, the TGI is > 100 µM.
Same read-out and setting: the figure for `COc1cc(/C=C/C(=N\NS(=O)(=O)c2ccc(C)cc2)c2sc(NNC(C)=O)nc2C)ccc1O` is > 100 µM.
The same measure, in the same setting: to `CCC1(O)CC2CC(=O)OC2C1O` (centres undefined) belongs > 100 µM; to `CCOC(=O)Nn1c(C)nnc1-c1ccccc1`, > 100 µM.
Same read-out and setting: the figure for `COc1ccc(/C=C2\CCC(C)C3=C2NC(=S)NC3c2ccc(OC)c(OC)c2)cc1OC` (centres undefined) is > 31.6 µM; for `O=[N+]([O-])/C(C(Cl)=C(Cl)Cl)=C(\SCc1ccccc1)N1CCCCC1` it is 70.1 µM; for `CC(C)/C(Cl)=N\OC(=O)Nc1ccc(S(N)(=O)=O)cc1` it is 31.7 µM.
Turning to `N=c1n(C(=O)N2CCCC2)c2cc(Cl)ccc2n1C1=NCCN1`, the TGI was > 100 µM.
Same read-out and setting: to `CCc1ccc(CCN2CCCCC2)nc1` belongs > 100 µM.

For a further assay, the system named is UACC-62 melanoma. The assay is described as follows: NCI anticancer screen, dose series, 48 h.
With `C=C1c2nc3ccccc3n2C=C(c2ccccc2)N1c1ccc([N+](=O)[O-])cc1`, the TGI was found to be 32.3 µM.
The same measure, in the same setting: the figure for `O=c1[nH]cc(N=Cc2cc(Cl)cc(Cl)c2O)c(=O)[nH]1` is 61.5 µM.
With `Cc1c2cnccc2c(C)c2c1c1ccccc1n2CCCN`, the GI50 is 0.517 µM; the TGI is 1.7 µM and 1.75 µM.
For the molecule `Oc1cc2c3c(c1)c1cc4c(cc1c[n+]3CC2)OCO4`, the TGI was 28.8 µM.
On the same count and under the same terms, to `c1ccc(N=C2SC3=Nc4cccc5cccc(c45)N3C2=Nc2ccccc2)cc1` belongs > 100 µM; to `CN1CCN([C@H]2C[C@H]3[C@@H]4CC=C5C[C@@H](O)CC[C@]5(C)[C@H]4CC[C@]3(C)C2=O)CC1`, > 100 µM; to `CCOC(=O)N1CCC2(CC1)C[C@](C)(C(C)=O)C(C)O2` (some centres undefined), > 100 µM.
The molecule `Oc1cccc2c(Cl)ccnc12` had a TGI of 8.45 µM.
Same read-out and setting: to `COc1cc2c(cc1OC)C(c1ccccc1CCCCl)=NCC2` belongs > 100 µM; to `CC(C)c1ccc(/C=C2/C=C(c3ccc4ccccc4c3)OC2=O)cc1`, > 100 µM; to `COc1cc(/C=C/C(=N\NS(=O)(=O)c2ccc(C)cc2)c2sc(NNC(C)=O)nc2C)ccc1O`, > 100 µM.
As to `CCC1(O)CC2CC(=O)OC2C1O` (centres undefined), the TGI is > 100 µM.
The same measure, in the same setting: to `CCOC(=O)Nn1c(C)nnc1-c1ccccc1` belongs > 100 µM.
The same measure, in the same setting: to `COc1ccc(/C=C2\CCC(C)C3=C2NC(=S)NC3c2ccc(OC)c(OC)c2)cc1OC` (centres undefined) belongs > 31.6 µM; to `O=[N+]([O-])/C(C(Cl)=C(Cl)Cl)=C(\SCc1ccccc1)N1CCCCC1`, 72 µM.
`CC(C)/C(Cl)=N\OC(=O)Nc1ccc(S(N)(=O)=O)cc1`: the TGI worked out at 37 µM.
The same measure, in the same setting: to `N=c1n(C(=O)N2CCCC2)c2cc(Cl)ccc2n1C1=NCCN1` belongs > 100 µM; to `CCc1ccc(CCN2CCCCC2)nc1`, > 100 µM.

The test system of a further assay is HOP-92 NSCLC. The assay is described as follows: NCI anticancer screen, dose series, 48 h.
`C=C1c2nc3ccccc3n2C=C(c2ccccc2)N1c1ccc([N+](=O)[O-])cc1` displayed a TGI of 21.9 µM.
Take `O=c1[nH]cc(N=Cc2cc(Cl)cc(Cl)c2O)c(=O)[nH]1`: the TGI turned out to be 89 µM.
Take `Cc1c2cnccc2c(C)c2c1c1ccccc1n2CCCN`: the GI50 is 0.776 µM; the TGI is 1.22 µM and 2.14 µM.
`Oc1cc2c3c(c1)c1cc4c(cc1c[n+]3CC2)OCO4`: the TGI was > 75.6 µM.
On to `c1ccc(N=C2SC3=Nc4cccc5cccc(c45)N3C2=Nc2ccccc2)cc1`, for which the TGI was > 100 µM.
Turning to `CN1CCN([C@H]2C[C@H]3[C@@H]4CC=C5C[C@@H](O)CC[C@]5(C)[C@H]4CC[C@]3(C)C2=O)CC1`, the TGI was > 100 µM.
Regarding `CCOC(=O)N1CCC2(CC1)C[C@](C)(C(C)=O)C(C)O2` (some centres undefined), the TGI is > 100 µM.
Still for that read-out and setting: to `Oc1cccc2c(Cl)ccnc12` belongs 21.5 µM.
For `COc1cc2c(cc1OC)C(c1ccccc1CCCCl)=NCC2`, the TGI is > 100 µM.
For `CC(C)c1ccc(/C=C2/C=C(c3ccc4ccccc4c3)OC2=O)cc1`, the TGI was > 100 µM.
Regarding `COc1cc(/C=C/C(=N\NS(=O)(=O)c2ccc(C)cc2)c2sc(NNC(C)=O)nc2C)ccc1O`, the TGI was > 100 µM.
Take `CCC1(O)CC2CC(=O)OC2C1O` (centres undefined): the TGI is > 100 µM.
On the same count and under the same terms, to `CCOC(=O)Nn1c(C)nnc1-c1ccccc1` belongs > 100 µM; to `COc1ccc(/C=C2\CCC(C)C3=C2NC(=S)NC3c2ccc(OC)c(OC)c2)cc1OC` (centres undefined), > 100 µM; to `O=[N+]([O-])/C(C(Cl)=C(Cl)Cl)=C(\SCc1ccccc1)N1CCCCC1`, 0.529 µM.
The same measure, in the same setting: to `CC(C)/C(Cl)=N\OC(=O)Nc1ccc(S(N)(=O)=O)cc1` belongs 10.1 µM.
The same measure, in the same setting: the figure for `N=c1n(C(=O)N2CCCC2)c2cc(Cl)ccc2n1C1=NCCN1` is > 100 µM.
For the molecule `CCc1ccc(CCN2CCCCC2)nc1`, the TGI was > 100 µM.

The subject of the next assay is HS 578T breast. The assay is described as follows: NCI anticancer screen, dose series, 48 h.
Consider `C=C1c2nc3ccccc3n2C=C(c2ccccc2)N1c1ccc([N+](=O)[O-])cc1`, for which the TGI was 30.3 µM.
`O=c1[nH]cc(N=Cc2cc(Cl)cc(Cl)c2O)c(=O)[nH]1` had a TGI of 67.1 µM.
Still for that read-out and setting: to `Cc1c2cnccc2c(C)c2c1c1ccccc1n2CCCN` belongs 2.37 µM.
The same measure, in the same setting: the figure for `Oc1cc2c3c(c1)c1cc4c(cc1c[n+]3CC2)OCO4` is 13.6 µM.
Consider `c1ccc(N=C2SC3=Nc4cccc5cccc(c45)N3C2=Nc2ccccc2)cc1`, for which the TGI was > 100 µM.
As to `CN1CCN([C@H]2C[C@H]3[C@@H]4CC=C5C[C@@H](O)CC[C@]5(C)[C@H]4CC[C@]3(C)C2=O)CC1`, the TGI was > 100 µM.
Same read-out and setting: to `CCOC(=O)N1CCC2(CC1)C[C@](C)(C(C)=O)C(C)O2` (some centres undefined) belongs > 100 µM.
Turning to `Oc1cccc2c(Cl)ccnc12`, the TGI was > 73.9 µM.
As for `COc1cc2c(cc1OC)C(c1ccccc1CCCCl)=NCC2`, the TGI was > 100 µM.
Consider `CC(C)c1ccc(/C=C2/C=C(c3ccc4ccccc4c3)OC2=O)cc1`, for which the TGI was > 100 µM.
The same measure, in the same setting: to `COc1cc(/C=C/C(=N\NS(=O)(=O)c2ccc(C)cc2)c2sc(NNC(C)=O)nc2C)ccc1O` belongs > 100 µM; to `CCC1(O)CC2CC(=O)OC2C1O` (centres undefined), > 100 µM.
The same measure, in the same setting: the figure for `CCOC(=O)Nn1c(C)nnc1-c1ccccc1` is > 100 µM; for `COc1ccc(/C=C2\CCC(C)C3=C2NC(=S)NC3c2ccc(OC)c(OC)c2)cc1OC` (centres undefined) it is > 31.6 µM; for `O=[N+]([O-])/C(C(Cl)=C(Cl)Cl)=C(\SCc1ccccc1)N1CCCCC1` it is > 100 µM.
The molecule `CC(C)/C(Cl)=N\OC(=O)Nc1ccc(S(N)(=O)=O)cc1` showed a TGI of 63.5 µM.
The same measure, in the same setting: to `N=c1n(C(=O)N2CCCC2)c2cc(Cl)ccc2n1C1=NCCN1` belongs > 100 µM; to `CCc1ccc(CCN2CCCCC2)nc1`, > 100 µM.

A further assay relates to NCI-H522 lung. The assay is described as follows: NCI anticancer screen, dose series, 48 h.
`C=C1c2nc3ccccc3n2C=C(c2ccccc2)N1c1ccc([N+](=O)[O-])cc1` yielded a TGI of 24.4 µM.
Still for that read-out and setting: to `O=c1[nH]cc(N=Cc2cc(Cl)cc(Cl)c2O)c(=O)[nH]1` belongs 65.3 µM.
For `Cc1c2cnccc2c(C)c2c1c1ccccc1n2CCCN`, the GI50 is 0.108 µM; the TGI is 1.28 µM and 0.281 µM.
In the case of `Oc1cc2c3c(c1)c1cc4c(cc1c[n+]3CC2)OCO4`, the TGI was 4.38 µM.
Take `c1ccc(N=C2SC3=Nc4cccc5cccc(c45)N3C2=Nc2ccccc2)cc1`: the TGI was > 100 µM.
`CN1CCN([C@H]2C[C@H]3[C@@H]4CC=C5C[C@@H](O)CC[C@]5(C)[C@H]4CC[C@]3(C)C2=O)CC1`: the TGI is > 100 µM.
Same read-out and setting: to `CCOC(=O)N1CCC2(CC1)C[C@](C)(C(C)=O)C(C)O2` (some centres undefined) belongs > 100 µM; to `Oc1cccc2c(Cl)ccnc12`, 2.44 µM.
Take `COc1cc2c(cc1OC)C(c1ccccc1CCCCl)=NCC2`: the TGI is > 100 µM.
Molecule `CC(C)c1ccc(/C=C2/C=C(c3ccc4ccccc4c3)OC2=O)cc1` displayed a TGI of 23.5 µM.
Same read-out and setting: to `COc1cc(/C=C/C(=N\NS(=O)(=O)c2ccc(C)cc2)c2sc(NNC(C)=O)nc2C)ccc1O` belongs > 100 µM.
Same read-out and setting: to `CCC1(O)CC2CC(=O)OC2C1O` (centres undefined) belongs > 100 µM.
Same read-out and setting: the figure for `CCOC(=O)Nn1c(C)nnc1-c1ccccc1` is > 100 µM; for `COc1ccc(/C=C2\CCC(C)C3=C2NC(=S)NC3c2ccc(OC)c(OC)c2)cc1OC` (centres undefined) it is > 100 µM.
With `O=[N+]([O-])/C(C(Cl)=C(Cl)Cl)=C(\SCc1ccccc1)N1CCCCC1`, the TGI was 39 µM.
The molecule `CC(C)/C(Cl)=N\OC(=O)Nc1ccc(S(N)(=O)=O)cc1` had a TGI of 2.55 µM.
Still for that read-out and setting: the figure for `N=c1n(C(=O)N2CCCC2)c2cc(Cl)ccc2n1C1=NCCN1` is > 100 µM; for `CCc1ccc(CCN2CCCCC2)nc1` it is > 100 µM.

The next assay relates to COLO 205 colon. The assay is described as follows: NCI anticancer screen, dose series, 48 h.
For the molecule `C=C1c2nc3ccccc3n2C=C(c2ccccc2)N1c1ccc([N+](=O)[O-])cc1`, the TGI is 48.4 µM.
Still for that read-out and setting: to `O=c1[nH]cc(N=Cc2cc(Cl)cc(Cl)c2O)c(=O)[nH]1` belongs 57.7 µM.
As for `Cc1c2cnccc2c(C)c2c1c1ccccc1n2CCCN`, the GI50 was 0.18 µM; the TGI is 0.986 µM and 0.629 µM.
`Oc1cc2c3c(c1)c1cc4c(cc1c[n+]3CC2)OCO4`: the TGI was > 40.6 µM.
On the same count and under the same terms, to `c1ccc(N=C2SC3=Nc4cccc5cccc(c45)N3C2=Nc2ccccc2)cc1` belongs > 100 µM; to `CN1CCN([C@H]2C[C@H]3[C@@H]4CC=C5C[C@@H](O)CC[C@]5(C)[C@H]4CC[C@]3(C)C2=O)CC1`, > 100 µM.
`CCOC(=O)N1CCC2(CC1)C[C@](C)(C(C)=O)C(C)O2` (some centres undefined): the TGI was > 100 µM.
Same read-out and setting: to `Oc1cccc2c(Cl)ccnc12` belongs 32.6 µM.
Same read-out and setting: to `COc1cc2c(cc1OC)C(c1ccccc1CCCCl)=NCC2` belongs > 100 µM.
`CC(C)c1ccc(/C=C2/C=C(c3ccc4ccccc4c3)OC2=O)cc1` showed a TGI of 76.1 µM.
For the molecule `COc1cc(/C=C/C(=N\NS(=O)(=O)c2ccc(C)cc2)c2sc(NNC(C)=O)nc2C)ccc1O`, the TGI was > 100 µM.
Still for that read-out and setting: the figure for `CCC1(O)CC2CC(=O)OC2C1O` (centres undefined) is > 100 µM.
The same measure, in the same setting: to `CCOC(=O)Nn1c(C)nnc1-c1ccccc1` belongs > 100 µM; to `COc1ccc(/C=C2\CCC(C)C3=C2NC(=S)NC3c2ccc(OC)c(OC)c2)cc1OC` (centres undefined), 24.7 µM; to `O=[N+]([O-])/C(C(Cl)=C(Cl)Cl)=C(\SCc1ccccc1)N1CCCCC1`, 34.8 µM.
As for `CC(C)/C(Cl)=N\OC(=O)Nc1ccc(S(N)(=O)=O)cc1`, the TGI turned out to be 3.92 µM.
For `N=c1n(C(=O)N2CCCC2)c2cc(Cl)ccc2n1C1=NCCN1`, the TGI was > 100 µM.
For `CCc1ccc(CCN2CCCCC2)nc1`, the TGI is > 100 µM.

(Values after PubChem BioAssay (NCI).)
